According to the CheMixHub viscosity set:

Assay: xn = mol fraction of the nth substance listed

O=[N+]([O-])[O-].O=[N+]([O-])[O-].[Ca+2] + O
viscosity [mPa·s], 100 kPa
Conditions	x1 = 0.00575	x1 = 0.006	x1 = 0.01	x1 = 0.01205	x1 = 0.0267	x1 = 0.03	x1 = 0.04	x1 = 0.04494	x1 = 0.06819	x1 = 0.07
298.15 K	0.963	0.964	1.052	1.051	1.384	1.328	1.955	1.954	3.256	3.257
323.15 K	0.599	0.599	0.66	0.66	0.852	0.844	1.207	1.204	1.928	1.931

C[n+]1ccn(CCc2ccccc2)c1.[Cl][Al-]([Cl])([Cl])[Cl] + CCCC[n+]1ccn(C)c1.[Cl][Al-]([Cl])([Cl])[Cl]
viscosity [mPa·s], 101 kPa
Conditions	293.15 K	298.15 K	303.15 K	308.15 K	313.15 K	318.15 K	323.15 K
x2 = 0.5	92.4	74.8	60.6	50.1	41.7	36.4	32.1
x2 = 0.6	75.1	60	50.6	41.6	35.6	30.4	27

N#Cc1ccccc1 + ClC(Cl)(Cl)Cl
viscosity [mPa·s], 101 kPa
Conditions	293.15 K	298.15 K	303.15 K	313.15 K	323.15 K
x1 = 0.005	0.986	0.91	0.845	0.748	0.669
x1 = 0.009	1.008	0.934	0.871	0.772	0.694
x1 = 0.045	1.005	0.929	0.863	0.769	0.691

CCCCC[N+](CC)(CC)CC.O=S(=O)([N-]S(=O)(=O)C(F)(F)F)C(F)(F)F + CCCCC[P+](CC)(CC)CC.O=S(=O)([N-]S(=O)(=O)C(F)(F)F)C(F)(F)F
viscosity [mPa·s], 101.3 kPa
Conditions	298.15 K	303.15 K	308.15 K	313.15 K	318.15 K
x1 = 0.2	96.6	75.4	59.8	–	–
x1 = 0.4	–	83.6	65.8	52.7	–
x1 = 0.6	–	94.3	73.6	58.4	–
x1 = 0.8	–	–	83.8	–	52.8

C1CC[C@H]2CCCC[C@@H]2C1 + O=C1CCCCC1
viscosity [mPa·s], 101.3 kPa
Conditions	293.15 K	303.15 K
x2 = 0.05	2.114	1.758
x2 = 0.15	2.103	1.744
x2 = 0.2415	2.105	1.737
x2 = 0.3447	2.119	1.737
x2 = 0.4511	2.147	1.744
x2 = 0.5088	2.168	1.75
x2 = 0.6731	2.253	1.784
x2 = 0.6779	2.256	1.785
x2 = 0.7761	2.326	1.815
x2 = 0.8609	2.397	1.848
x2 = 0.9315	2.466	1.88

NNc1ccccc1 + COc1ccccc1O
303.15 K, 101 kPa
Conditions	viscosity [mPa·s]
x1 = 0.1	5.95
x1 = 0.2	8.21
x1 = 0.3	10.92
x1 = 0.4	13.15
x1 = 0.45	14.65
x1 = 0.5	15.26
x1 = 0.6	15.77
x1 = 0.667	16.06
x1 = 0.7	15.54
x1 = 0.8	14.08
x1 = 0.9	12.33

CCCCn1cc[n+](C)c1.[Cl-] + CCO
viscosity [mPa·s], 101 kPa
Conditions	293.15 K	303.15 K	308.15 K
x2 = 0.4991	75.1	–	–
x2 = 0.7003	–	9.24	8.17

CCCOCCO + CCCN
viscosity [mPa·s], 101.33 kPa
Conditions	298.15 K	308.15 K	318.15 K
x1 = 0.0069	0.365	0.336	0.296
x1 = 0.0201	0.383	0.346	0.307
x1 = 0.054	0.429	0.385	0.335
x1 = 0.1049	0.509	0.446	0.382
x1 = 0.1955	0.678	0.574	0.481
x1 = 0.2496	0.797	0.668	0.55
x1 = 0.3215	0.969	0.8	0.655
x1 = 0.3686	1.103	0.895	0.722
x1 = 0.4528	1.338	1.075	0.853
x1 = 0.4581	1.355	1.088	0.862
x1 = 0.5595	1.629	1.289	1.015
x1 = 0.6789	1.925	1.51	1.175
x1 = 0.752	2.082	1.628	1.265
x1 = 0.8162	2.191	1.715	1.32
x1 = 0.8943	2.282	1.803	1.385
x1 = 0.9697	2.333	1.867	1.435
